Structures can show the parent of a compound that is named as a salt.
Tests used:
[1] = target: T1, human dopamine D3 receptors (Homo sapiens, UniProt P35462); assay: Dopamine D3 receptor binding, [125I]-iodosulpride displacement; settings: for Ki: membranes of HEK-293 cells stably expressing human D3 receptor, 0.1 nM [125I]-iodosulpride, 25° C., 60 minutes; for Ki(D2)*/Ki(D3)*: selectivity ratio of receptor binding constants D2 versus D3
T1 construct: expressed in transfected cells; membranes
Procedure: (§1) The substance to be tested was either dissolved in methanol/Chremophor® (BASF-AG) or in dimethyl sulfoxide and then diluted with water to the desired concentration.
(§2) Each assay mixture was run in triplicate.
The incubation buffer contained 50 mM tris, 120 mM NaCl, 5 mM KCl, 2 mM CaCl2, 2 mM MgCl2 and 0.1% bovine serum albumin, 10 μM quinolone and 0.1% ascorbic acid (prepared fresh daily). The buffer was adjusted to pH 7.4 with HCl.
(§3) Measurement and Analysis:
(§4) After having been incubated at 25° C. for 60 minutes, the assay mixtures were filtered through a Whatman GF/B glass fiber filter under vacuum using a cell collecting device. The filters were transferred to scintillation viols using a filter transfer system. After 4 ml of Ultima Gold® (Packard) have been added, the samples were shaken for one hour and the radioactivity was then counted in a Beta-Counter (Packard, Tricarb 2000 or 2200CA). The cpm values were converted into dpm using a standard quench series and the program belonging to the instrument.
(§5) The inhibition curves were analyzed by means of iterative nonlinear regression analysis using the Statistical Analysis System (SAS) which is similar to the “LIGAND” program described by Munson and Rodbard.
(§6) The results of the receptro binding studies are expressed as receptor binding constants Ki(D2) and Ki(D3), respectively, as herein before described, and given in table 2.

[2] = target: T2, human dopamine D2L receptors (long isoform) (Homo sapiens, UniProt P14416); assay: Dopamine D2L receptor binding, [125I] iodospiperone displacement; settings: membranes of HEK-293 cells stably expressing human D2L receptor; 0.01 nM [125I] iodospiperone; 25° C., 60 minutes; read-out: Ki(D2)*
T2 construct: expressed in transfected cells; membranes
Procedure: as §1, §2
The incubation buffer contained 50 mM tris, 120 mM NaCl, 5 mM KCl, 2 mM CaCl2, 2 mM MgCl2 and 0.1% bovine serum albumin. The buffer was adjusted to pH 7.4 with HCl.
as §3, §4, §5, §6

T2 sequence (P14416 whole entry, canonical isoform): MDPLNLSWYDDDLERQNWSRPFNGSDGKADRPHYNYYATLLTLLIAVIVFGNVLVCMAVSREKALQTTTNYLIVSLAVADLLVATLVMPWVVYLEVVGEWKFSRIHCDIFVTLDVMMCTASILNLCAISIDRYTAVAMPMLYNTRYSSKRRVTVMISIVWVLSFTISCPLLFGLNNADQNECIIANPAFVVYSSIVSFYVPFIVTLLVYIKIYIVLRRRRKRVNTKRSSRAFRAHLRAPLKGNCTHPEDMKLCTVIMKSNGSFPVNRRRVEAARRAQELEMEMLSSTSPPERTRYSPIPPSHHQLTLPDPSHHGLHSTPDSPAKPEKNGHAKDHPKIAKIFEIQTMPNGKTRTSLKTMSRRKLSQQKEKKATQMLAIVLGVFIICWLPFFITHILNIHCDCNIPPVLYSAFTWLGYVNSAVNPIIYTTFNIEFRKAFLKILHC
T1 sequence (P35462 whole entry): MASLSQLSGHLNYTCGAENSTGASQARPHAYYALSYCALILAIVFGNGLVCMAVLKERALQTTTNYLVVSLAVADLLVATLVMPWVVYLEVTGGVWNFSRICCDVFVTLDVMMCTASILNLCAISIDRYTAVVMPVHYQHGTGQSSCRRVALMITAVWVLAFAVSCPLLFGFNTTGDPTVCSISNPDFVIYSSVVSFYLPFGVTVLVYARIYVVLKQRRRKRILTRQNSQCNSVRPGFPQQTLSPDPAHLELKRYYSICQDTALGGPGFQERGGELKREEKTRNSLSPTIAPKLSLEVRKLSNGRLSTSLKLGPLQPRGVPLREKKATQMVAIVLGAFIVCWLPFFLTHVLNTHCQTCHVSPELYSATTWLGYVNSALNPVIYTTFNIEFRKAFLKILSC

SMILES | Ki [1] [nM] | Ki(D2)*/Ki(D3)* [1] | Ki [2] [nM]
CCC(=O)N1CCC[C@@H]2Cc3cc(NS(=O)(=O)c4ccc(C(C)C)cc4)ccc3C[C@H]21 (relative stereo) [Example 22, trans-4-Isopropyl-N-(1-propionyl-1,2,3,4,4a,5,10,10a-octahydro-benzo[g]quinolin-7-yl)benzenesulfonamide] | 19 | 96 | 1830
CCCN1CCC[C@@H]2Cc3cc(NS(=O)(=O)c4ccc(C(C)C)cc4)ccc3C[C@H]21 (relative stereo) [Example 23, trans-4-Isopropyl-N-(1-propyl-1,2,3,4,4a,5,10,10a-octahydro-benzo[g]quinolin-7-yl)benzenesulfonamide] | 2.3 | 50 | 116
CCCN[C@@H]1CCc2cc(NS(=O)(=O)c3ccc(C(C)C)cc3)ccc2C1 [Example 3, 4-Isopropyl-N—((R)-6-propylamino-5,6,7,8-tetrahydro-naphthalen-2-yl)-benzenesulfonamide] | 0.34 | 30 | 10.3
C=CCN[C@@H]1CCc2cc(NS(=O)(=O)c3ccc(C(C)C)cc3)ccc2C1.Cl [Example 6, N—((R)-6-Allylamino-5,6,7,8-tetrahydro-naphthalen-2-yl)-4-isopropyl-benzenesulfonamide, hydrochloride] | 0.28 | 52 | 14.5
CCCN[C@H]1CCc2cc(N(C)S(=O)(=O)c3ccc(C(C)C)cc3)ccc2C1 [Example 10, 4-Isopropyl-N-methyl-N—((S)-6-propylamino-5,6,7,8-tetrahydro-naphthalen-2-yl)benzenesulfonamide] | 8.2 | 29 | 238
CCCN[C@H]1CCc2cc(NS(=O)(=O)c3ccc(N4CCCC4)cc3)ccc2C1.Cl [Example 49, N—((S)-6-Propylamino-5,6,7,8-tetrahydro-naphthalen-2-yl)-4-pyrrolidin-1-ylbenzenesulfonamide, hydrochloride] | 1.3 | 63 | –
CCCN[C@H]1CCc2cc(NS(=O)(=O)c3ccc(CCC)s3)ccc2C1.Cl [Example 52, 5-Propyl-thiophene-sulfonic acid ((S)-6-propylamino-5,6,7,8-tetrahydro-naphthalen-2-yl)amide, hydrochloride] | 0.7 | 71 | –
CCCN[C@H]1CCc2cc(NS(=O)(=O)c3ccc([C@H](C)CF)cc3)ccc2C1.Cl [Example 55, 4-((S)-2-Fluoro-1-methyl-ethyl)-N—((S)-6-propylamino-5,6,7,8-tetrahydro-naphthalen-2-yl)benzenesulfonamide, hydrochloride] | 1.7 | 230 | –
CCCN[C@H]1CCc2cc(NS(=O)(=O)c3ccc([C@@H](C)CF)cc3)ccc2C1.Cl [Example 56, 4-((R)-2-Fluoro-1-methyl-ethyl)-N—((S)-6-propylamino-5,6,7,8-tetrahydro-naphthalen-2-yl)benzenesulfonamide, hydrochloride] | 2.4 | 161 | –
CCCN[C@H]1CCc2cc(NS(=O)(=O)c3ccc(C(C)=O)cc3)ccc2C1 [Example 60, 4-Acetyl-N—((S)-6-propylamino-5,6,7,8-tetrahydro-naphthalen-2-yl)-benzenesulfonamide] | 9.4 | 274 | –
CCCN[C@H]1CCc2cc(NS(=O)(=O)c3ccc(C(C)(C)F)cc3)ccc2C1.O=C(O)C(F)(F)F [Example 62, 4-(1-Fluoro-1-methyl-ethyl)-N—((S)-6-propylamino-5,6,7,8-tetrahydro-naphthalen-2-yl)benzenesulfonamide, trifluoro acetate] | 6.2 | 77 | –
CCN[C@H]1CCc2cc(NS(=O)(=O)c3ccc(OC(F)(F)F)cc3)ccc2C1.Cl [Example 63, N—((S)-6-Ethylamino-5,6,7,8-tetrahydro-naphthalen-2-yl)-4-trifluoromethoxybenzenesulfonamide, hydrochloride] | 30.9 | 40 | –

Results, then the molecule that gave them:

Ki [1] [nM] | Ki(D2)*/Ki(D3)* [1] | Ki [2] [nM] | SMILES
1.4 | 221 | 309 | CCCN[C@H]1CCc2cc(NS(=O)(=O)c3ccc(C(C)C(F)(F)F)cc3)ccc2C1 (mixture of isomers) [Example 40, N—((S)-6-Propylamino-5,6,7,8-tetrahydro-naphthalen-2-yl)-4-(2,2,2-trifluoro-1-methyl-ethyl)benzenesulfonamide-racemate]
14 | 32 | 442 | CCCN[C@@H]1CCc2ccc(NS(=O)(=O)c3ccc(C(C)C)cc3)cc2C1 [Example 2, (R)-4-Isopropyl-N—((R)-7-propylamino-5,6,7,8-tetrahydro-naphthalen-2-yl)benzenesulfonamide]
1.97 | 77 | 152 | C=CCN[C@H]1CCc2cc(NS(=O)(=O)c3ccc(C(C)C)cc3)ccc2C1.Cl [Example 7, N—((S)-6-Allylamino-5,6,7,8-tetrahydro-naphthalen-2-yl)-4-isopropyl-benzenesulfonamide, hydrochloride]
0.5 | 102 | 50.6 | CCCN[C@H]1CCc2cc(NS(=O)(=O)c3ccc(C(C)C)cc3)ccc2C1.Cl [Example 8, 4-Isopropyl-N—((S)-6-propylamino-5,6,7,8-tetrahydro-naphthalen-2-yl)-benzenesulfonamide, hydrochloride]
15.3 | 27 | 416 | C=CCN[C@H]1CCc2cc(N(C)S(=O)(=O)c3ccc(C(C)C)cc3)ccc2C1 [Example 9, N—((S)-6-Allylamino-5,6,7,8-tetrahydro-naphthalen-2-yl)-4-isopropyl-N-methylbenzenesulfonamide]
2.5 | 100 | – | CCCN[C@H]1CCc2cc(NS(=O)(=O)c3ccc(OC(F)F)cc3)ccc2C1.Cl [Example 46, 4-Difluoromethoxy-N—((S)-6-propylamino-5,6,7,8-tetrahydro-naphthalen-2-yl)benzenesulfonamide, hydrochloride]
5.1 | 70 | – | CCCN[C@H]1CCc2cc(NS(=O)(=O)c3ccc(CC(F)(F)F)cc3)ccc2C1.Cl [Example 47, N—((S)-6-Propylamino-5,6,7,8-tetrahydro-naphthalen-2-yl)-4-(2,2,2-trifluoro-ethyl)benzenesulfonamide, hydrochloride]
1.5 | 128 | – | CCCN[C@H]1CCc2cc(NS(=O)(=O)c3ccc(C4CC4(F)F)cc3)ccc2C1.Cl (stereo partly drawn) [Example 48, 4-(2,2-Difluoro-cyclopropyl)-N—((S)-6-propylamino-5,6,7,8-tetrahydro-naphthalen-2-yl)benzenesulfonamide, hydrochloride]
1.8 | 95 | – | CCCN[C@H]1CCc2cc(NS(=O)(=O)c3ccc(N(C)C)cc3)ccc2C1.Cl [Example 50, 4-Dimethylamino-N—((S)-6-propylamino-5,6,7,8-tetrahydro-naphthalen-2-yl)benzenesulfonamide, hydrochloride]
1.7 | 56 | – | CCCN[C@H]1CCc2cc(NS(=O)(=O)c3ccc(CCCF)cc3)ccc2C1 [Example 51, 4-(3-Fluoro-propyl)-N—((S)-6-propylamino-5,6,7,8-tetrahydro-naphthalen-2-yl)benzenesulfonamide]
0.15 | 229 | – | CCCN[C@@H]1CCc2cc(NS(=O)(=O)c3ccc(CCCF)cc3)ccc2C1.Cl [Example 58, 4-(3-Fluoro-propyl)-N—((R)-6-propylamino-5,6,7,8-tetrahydro-naphthalen-2-yl)benzenesulfonamide, hydrochloride]
3.4 | 70 | – | CCN[C@H]1CCc2cc(NS(=O)(=O)c3ccc(C(C)C)cc3)ccc2C1.Cl [Example 64, N—((S)-6-Ethylamino-5,6,7,8-tetrahydro-naphthalen-2-yl)-4-isopropyl-benzenesulfonamide, hydrochloride]
2 | 42 | – | CC(C)c1ccc(S(=O)(=O)Nc2ccc3c(c2)CC[C@H](NCCCF)C3)cc1.Cl [Example 68, N—[(S)-6-(3-Fluoro-propylamino)-5,6,7,8-tetrahydro-naphthalen-2-yl]-4-isopropylbenzenesulfonamide, hydrochloride]
3.6 | 61 | – | CCN[C@H]1CCc2cc(NS(=O)(=O)c3ccc(N4CCCC4)cc3)ccc2C1.Cl [Example 70, N—((S)-6-Ethylamino-5,6,7,8-tetrahydro-naphthalen-2-yl)-4-pyrrolidin-1-ylbenzenesulfonamide, hydrochloride]
– | – | 250 | CCCN[C@H]1CCc2cc(NS(=O)(=O)c3ccc(OC(F)F)cc3)ccc2C1 [Example 74, 4-Difluoromethoxy-N—((S)-6-propylamino-5,6,7,8-tetrahydro-naphthalen-2-yl)benzenesulfonamide, hydrochloride]

Source: US8969552B2, “Arylsulfonylmethyl or arylsulfonamide substituted aromatic compounds suitable for treating disorders that respond to modulation of the dopamine D3 receptor” (AbbVie Deutschland GmbH & Co. KG, priority 2004, dated 2015)
